Non-standard residues stand in square brackets, D forms with d. Residues, ends and D or L forms follow the SMILES beside them. *: point of attachment. Doxorubicin(3'-N) = COc1cccc2c1C(=O)c1c(O)c3c(c(O)c1C2=O)C[C@@](O)(C(=O)CO)C[C@@H]3O[C@H]1C[C@H](N*)[C@H](O)[C@H](C)O1; Hyp = O=C(O)[C@@H]1C[C@@H](O)CN1; tBuAla = CC(C)(C)C[C@H](N)C(=O)O; Chg = N[C@H](C(=O)O)C1CCCCC1
How the values were obtained:
[1] = target: T1, enzymatically active free PSA (Homo sapiens, UniProt P07288); assay: Recognition of oligopeptide-doxorubicin conjugates by free PSA (HPLC, time to 50% cleavage); type: biochemical; details: conjugate added to PSA at a molar ratio of 100 to 1 in PSA digestion buffer; free conjugate tested
T1 construct: enzymatically active free PSA
T1 sequence (P07288 25-261): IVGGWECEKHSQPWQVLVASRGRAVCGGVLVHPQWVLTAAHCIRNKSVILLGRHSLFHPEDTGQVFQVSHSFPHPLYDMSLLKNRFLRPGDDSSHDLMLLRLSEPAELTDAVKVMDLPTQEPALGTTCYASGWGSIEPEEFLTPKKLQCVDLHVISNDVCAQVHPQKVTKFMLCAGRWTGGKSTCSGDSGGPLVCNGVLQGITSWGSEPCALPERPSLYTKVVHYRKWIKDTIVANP
Protocol: The conjugates prepared as described in Examples 3-5 were individually dissolved in PSA digestion buffer (12 mM tris(hydroxymethyl)-aminomethane pH8.0, 25 mM NaCl, 0.5 mM CaCl2) and the solution added to PSA at a molar ration of 100 to 1. Alternatively, the PSA digestion buffer utilized is 50 mM tris(hydroxymethyl)-aminomethane pH7.4, 140 mM NaCl. The reaction is quenched after various reaction times by the addition of trifluoroacetic acid (TFA) to a final 1% (volume/volume). Alternatively the reaction is quenched with 10mM ZnCl2. The quenched reaction was analyzed by HPLC on a reversed-phase C18 column using an aqueous 0.1%TFA/acetonitrile gradient. […] If no salt is indicated for the conjugate, the free conjugate was tested. The oligopeptide-cytotoxic agent conjugates described in Examples 4 and 5 were assessed for the amount of time (in minutes) required for 50% cleavage of the oligopeptide with enzymatically active free PSA and 50% cleavage occurred in less than 2 hours for those conjugates.

[2] = test system: LNCap prostate tumor cells (which express enzymatically active PSA); assay: In vitro cytotoxicity of peptidyl derivatives of doxorubicin, Alamar Blue assay, LNCaP cells; type: cell-based; details: 72 HRS incubation, free conjugate tested, read-out: LNCaP Cell Kill in 72 HRS EC 50
Protocol: (§1) The cytotoxicities of the cleaveable oligopeptide-doxorubicin conjugates, prepared as described in Examples 3 and 4, against a line of cells which is known to be killed by unmodified doxorubicin were assessed with an Alamar Blue assay. Specifically, cell cultures of LNCap prostate tumor cells (which express enzymatically active PSA) or DuPRO cells in 96 well plates was diluted with medium ([…]-α [MEM-α]) containing various concentrations of a given conjugate (final plate well volume of 200µl). The cells were incubated for 3 days at 37°C, 20µl of Alamar Blue is added to the assay well. The cells were further incubated and the assay plates were read on a EL-310 ELISA reader at the dual wavelengths of 570 and 600 nm at 4 and 7 hours after addition of Alamar Blue. Relative percentage viability at the various concentration of conjugate tested was then calculated versus control (no conjugate) cultures. If no salt is indicated, the free conjugate was tested.

[3] = test system: DuPRO cells; assay: In vitro cytotoxicity of peptidyl derivatives of doxorubicin, Alamar Blue assay, DuPRO cells; type: cell-based; details: DuPRO cells (value in parentheses in the LNCaP column), 72 HRS incubation, read-out: Cell Kill in 72 HRS EC 50 (µM), DuPRO
Protocol: as §1

| Compound | Time to 50% Substrate Cleavage by PSA [1] [min] | EC50 [2] [µM] | EC50 [3] [µM] | Time to 50% Substrate Cleavage by PSA (Min) [1] |
| --- | --- | --- | --- | --- |
| PEG(2)-(4-trans-L-Hyp)ASChgQ-SL-DOX (3') | 20 |  |  |  |
| COc1cccc2c1C(=O)c1c(O)c3c(c(O)c1C2=O)C[C@@](O)(C(=O)CO)C[C@@H]3O[C@H]1C[C@H](NC(=O)[C@H](CC(C)C)NC(=O)[C@H](CO)NC(=O)[C@H](CCC(N)=O)NC(=O)[C@@H](NC(=O)[C@H](CO)NC(=O)[C@H](C)NC(=O)[C@@H]2C[C@@H](O)CN2C(C)=O)C2CCCCC2)[C@H](O)[C@H](C)O1 [Ac-(4-trans-L-Hyp)ASChgQ-SL-DOX (3'), [N-Ac-(4-trans-L-Hyp)]-Ala-Ser-Chg-Gln-Ser-Leu-Dox] (HELM PEPTIDE1{[ac].[Hyp].A.S.[O=C([C@@H](N[*:1])C1CCCCC1)[*:2]].Q.S.L.[COc1cccc2c1C(=O)c1c(O)c3c(c(O)c1C2=O)C[C@@](O)(C(=O)CO)C[C@@H]3O[C@H]1C[C@H](N[*:1])[C@H](O)[C@H](C)O1]}$$$$V2.0) | 20 | 4.5 | 90 |  |
| COc1cccc2c1C(=O)c1c(O)c3c(c(O)c1C2=O)C[C@@](O)(C(=O)CO)C[C@@H]3O[C@H]1C[C@H](NC(=O)[C@H](CC(C)(C)C)NC(=O)[C@H](CO)NC(=O)[C@H](CCC(N)=O)NC(=O)[C@@H](NC(=O)[C@H](CO)NC(=O)[C@H](C)NC(=O)[C@@H]2C[C@@H](O)CN2C(C)=O)C2CCCCC2)[C@H](O)[C@H](C)O1 [Ac-(4-trans-L-Hyp)ASChgQ-StBuAla-DOX (3')] (Ac-[Hyp]AS[Chg]QS[tBuAla]-{Doxorubicin(3'-N)}) | 25 | 100 | > 100 |  |
| Ac-(4-trans-L-Hyp)ASChgQ-SThi-DOX (3') |  |  |  | INSOLUBLE |
